According to patent US12162893B2 (Erasca, Inc., priority 2020, dated 2024):

Molecular target: T1, mutant G12C K-RAS (Homo sapiens, UniProt P01116, G12C)
T1 construct: made in house; host or cells: E. coli BL21
Experiment: covalent adduct formation (CAF) with mutant G12C K-RAS
Assay type: binding
Conditions: Table 6; 10 μM, 1 h
Experimental: Embodiments disclosed herein are further illustrated by the following examples in Tables 1-4 and the Examples hereinbelow. The Tables indicate the compound number, structure, the observed mass spectral molecular weight peak, and covalent adduct formation (CAF) with a mutant G12C K-RAS after 60 minutes at a concentration of 10 micromolar.

% CAF @ 10 μM,1 h | SMILES
91.6% | C=CC(=O)N1C[C@H](C)N(c2nc(=O)n3c4c(c(-c5ccc(F)cc5F)c(Cl)cc24)OC[C@H]3COC[C@H]2CCCN2C)C[C@H]1C [Example 287, (3R)-7-((2S,5R)-4-acryloyl-2,5-dimethylpiperazin-1-yl)-9-chloro-10-(2,4-difluorophenyl)-3-((((R)-1-methylpyrrolidin-2-yl)methoxy)methyl)-2H-[1,4]oxazino[2,3,4-ij]quinazolin-5(3H)-one]
13.5% | C=CC(=O)N1CCN(c2nc(=O)n3c4c(c(-c5ccc(F)cc5F)cc(CC#N)c24)OCC3)CC1 [Example 289, 2-(7-(4-acryloylpiperazin-1-yl)-10-(2,4-difluorophenyl)-5-oxo-2,3-dihydro-5H-[1,4]oxazino[2,3,4-ij]quinazolin-8-yl)acetonitrile]
79.8% | C=CC(=O)N1C[C@H](C)N(c2nc(=O)n3c4c(c(-c5ccc(F)cc5F)c(Cl)cc24)OC[C@@H]3COC[C@@H]2CCCN2C)C[C@H]1C [Example 296, (3S)-7-((2S,5R)-4-acryloyl-2,5-dimethylpiperazin-1-yl)-9-chloro-10-(2,4-difluorophenyl)-3-((((S)-1-methylpyrrolidin-2-yl)methoxy)methyl)-2,3-dihydro-5H-[1,4]oxazino[2,3,4-ij]quinazolin-5-one]
75.4% | C=CC(=O)N1C[C@H](C)N(c2nc(=O)n3c4c(c(-c5ccc(F)cc5F)c(Cl)cc24)OC[C@H]3CCCN2CC3(COC3)C2)C[C@H]1C [Example 299, (3R)-3-(3-(2-oxa-6-azaspiro[3.3]heptan-6-yl)propyl)-7-((2S,5R)-4-acryloyl-2,5-dimethylpiperazin-1-yl)-9-chloro-10-(2,4-difluorophenyl)-2,3-dihydro-5H-[1,4]oxazino[2,3,4-ij]quinazolin-5-one]
45.8% | C=CC(=O)N1C[C@H](C)N(c2nc(=O)n3c4c(c(-c5ccc(F)cc5F)c(Cl)cc24)OC[C@H]3CO[C@@H]2CCN(C)C2)C[C@H]1C [Example 302, (3R)-7-((2S,5R)-4-acryloyl-2,5-dimethylpiperazin-1-yl)-9-chloro-10-(2,4-difluorophenyl)-3-((((R)-1-methylpyrrolidin-3-yl)oxy)methyl)-2,3-dihydro-5H-[1,4]oxazino[2,3,4-ij]quinazolin-5-one]
15.4% | C=CC(=O)N1CCN(c2nc(=O)n3c4c(c(-c5ccc(F)cc5F)c(Cl)cc24)OCC3)[C@@H](CO)C1 [Example 303, 7-((R)-4-acryloyl-2-(hydroxymethyl)piperazin-1-yl)-9-chloro-10-(2,4-difluorophenyl)-2,3-dihydro-5H-[1,4]oxazino[2,3,4-ij]quinazolin-5-one]

Further lines, the compound ahead of its results:

SMILES | % CAF @ 10 μM,1 h
C=CC(=O)N1C[C@H](C)N(c2nc(=O)n3c4c(c(-c5ccc(F)cc5F)c(Cl)cc24)OC[C@H]3CN2CCN(C)CC2=O)C[C@H]1C [Example 280, (3R)-7-((2S,5R)-4-acryloyl-2,5-dimethylpiperazin-1-yl)-9-chloro-10-(2,4-difluorophenyl)-3-((4-methyl-2-oxopiperazin-1-yl)methyl)-2H-[1,4]oxazino[2,3,4-ij]quinazolin-5(3H)-one] | 57.5%
C=CC(=O)N1C[C@H](C)N(c2nc(=O)n3c4c(c(-c5c(C)ccc6[nH]ncc56)c(Cl)cc24)OC[C@@H]3CCCN2C3CCC2COC3)C[C@H]1C [Example 281, (3S,10S)-3-(3-(3-oxa-8-azabicyclo[3.2.1]octan-8-yl)propyl)-7-((2S,5R)-4-acryloyl-2,5-dimethylpiperazin-1-yl)-9-chloro-10-(5-methyl-1H-indazol-4-yl)-2,3-dihydro-5H-[1,4]oxazino[2,3,4-ij]quinazolin-5-one] | 0%
C=CC(=O)N1C[C@H](C)N(c2nc(=O)n3c4c(c(-c5c(C)ccc6[nH]ncc56)c(Cl)cc24)OC[C@@H]3CCCN2C3CCC2COC3)C[C@H]1C [Example 282, (3S,10R)-3-(3-(3-oxa-8-azabicyclo[3.2.1]octan-8-yl)propyl)-7-((2S,5R)-4-acryloyl-2,5-dimethylpiperazin-1-yl)-9-chloro-10-(5-methyl-1H-indazol-4-yl)-2,3-dihydro-5H-[1,4]oxazino[2,3,4-ij]quinazolin-5-one] | 86%
C=CC(=O)N1C[C@H](C)N(c2nc(=O)n3c4c(c(-c5ccc(F)cc5F)c(Cl)cc24)OC[C@H]3CCCN2CCN(C)C(=O)C2)C[C@H]1C [Example 283, (3R)-7-((2S,5R)-4-acryloyl-2,5-dimethylpiperazin-1-yl)-9-chloro-10-(2,4-difluorophenyl)-3-(3-(4-methyl-3-oxopiperazin-1-yl)propyl)-2,3-dihydro-5H-[1,4]oxazino[2,3,4-ij]quinazolin-5-one] | 92.4%
C=CC(=O)N1C[C@H](C)N(c2nc(=O)n3c4c(c(-c5ccc(F)cc5F)c(Cl)cc24)OC[C@H]3CCCN(C)CC(F)(F)F)C[C@H]1C [Example 284, (3R)-7-((2S,5R)-4-acryloyl-2,5-dimethylpiperazin-1-yl)-9-chloro-10-(2,4-difluorophenyl)-3-(3-(methyl(2,2,2-trifluoroethyl)amino)propyl)-2,3-dihydro-5H-[1,4]oxazino[2,3,4-ij]quinazolin-5-one] | 92.4%
C=CC(=O)N1C[C@H](C)N(c2nc(=O)n3c4c(c(-c5ccc(F)cc5F)c(Cl)cc24)OC[C@H]3CN2C[C@H]3CC[C@@H](C2)N3C)C[C@H]1C [Example 285, (3R)-7-((2S,5R)-4-acryloyl-2,5-dimethylpiperazin-1-yl)-9-chloro-10-(2,4-difluorophenyl)-3-(((1R,5S)-8-methyl-3,8-diazabicyclo[3.2.1]octan-3-yl)methyl)-2H-[1,4]oxazino[2,3,4-ij]quinazolin-5(3H)-one] | 86.2%
C=CC(=O)N1C[C@H](C)N(c2nc(=O)n3c4c(c(-c5ccc(F)cc5F)c(Cl)cc24)OC[C@@H]3CN2C[C@H]3CC[C@@H](C2)N3C)C[C@H]1C [Example 286, (3S)-7-((2S,5R)-4-acryloyl-2,5-dimethylpiperazin-1-yl)-9-chloro-10-(2,4-difluorophenyl)-3-(((1R,5S)-8-methyl-3,8-diazabicyclo[3.2.1]octan-3-yl)methyl)-2H-[1,4]oxazino[2,3,4-ij]quinazolin-5(3H)-one] | 91.6%
C=CC(=O)N1C[C@H](C)N(c2nc(=O)n3c4c(c(-c5ccc(F)cc5F)c(Cl)cc24)OC[C@H]3CC2CCN(C)CC2)C[C@H]1C [Example 288, (3R)-7-((2S,5R)-4-acryloyl-2,5-dimethylpiperazin-1-yl)-9-chloro-10-(2,4-difluorophenyl)-3-((1-methylpiperidin-4-yl)methyl)-2H-[1,4]oxazino[2,3,4-ij]quinazolin-5(3H)-one] | 95.9%
C=CC(=O)N1C[C@H](C)N(c2nc(=O)n3c4c(c(-c5ccc(F)cc5F)c(Cl)cc24)OC[C@@H]3CN2C[C@H]3CC[C@@H](C2)N3C2COC2)C[C@H]1C [Example 290, (3S)-7-((2S,5R)-4-acryloyl-2,5-dimethylpiperazin-1-yl)-9-chloro-10-(2,4-difluorophenyl)-3-(((1R,5S)-8-(oxetan-3-yl)-3,8-diazabicyclo[3.2.1]octan-3-yl)methyl)-2H-[1,4]oxazino[2,3,4-ij]quinazolin-5(3H)-one] | 92.6%
C=CC(=O)N1C[C@H](C)N(c2nc(=O)n3c4c(c(-c5ccc(F)cc5F)c(Cl)cc24)OC[C@H]3CN2C[C@H]3CC[C@@H](C2)N3C2COC2)C[C@H]1C [Example 291, (3R)-7-((2S,5R)-4-acryloyl-2,5-dimethylpiperazin-1-yl)-9-chloro-10-(2,4-difluorophenyl)-3-(((1R,5S)-8-(oxetan-3-yl)-3,8-diazabicyclo[3.2.1]octan-3-yl)methyl)-2H-[1,4]oxazino[2,3,4-ij]quinazolin-5(3H)-one] | 88.8%
C=CC(=O)N1C[C@H](C)N(c2nc(=O)n3c4c(c(-c5ccc(F)cc5F)c(Cl)cc24)OC[C@H]3CC2(O)CCN(C)CC2)C[C@H]1C [Example 293, (3R)-7-((2S,5R)-4-acryloyl-2,5-dimethylpiperazin-1-yl)-9-chloro-10-(2,4-difluorophenyl)-3-((4-hydroxy-1-methylpiperidin-4-yl)methyl)-2H-[1,4]oxazino[2,3,4-ij]quinazolin-5(3H)-one] | 82.4%
C=CC(=O)N1C[C@H](C)N(c2nc(=O)n3c4c(c(-c5ccc(F)cc5F)c(Cl)cc24)OC[C@H]3COC2CCN(C)CC2)C[C@H]1C [Example 297, (3R)-7-((2S,5R)-4-acryloyl-2,5-dimethylpiperazin-1-yl)-9-chloro-10-(2,4-difluorophenyl)-3-(((1-methylpiperidin-4-yl)oxy)methyl)-2H-[1,4]oxazino[2,3,4-ij]quinazolin-5(3H)-one] | 90.5%
C=CC(=O)N1C[C@H](C)N(c2nc(=O)n3c4c(c(-c5ccc(F)cc5F)c(Cl)cc24)OC[C@H]3CCCN2CC(F)(F)C2)C[C@H]1C [Example 298, (3R)-7-((2S,5R)-4-acryloyl-2,5-dimethylpiperazin-1-yl)-9-chloro-3-(3-(3,3-difluoroazetidin-1-yl)propyl)-10-(2,4-difluorophenyl)-2,3-dihydro-5H-[1,4]oxazino[2,3,4-ij]quinazolin-5-one] | 68%
C=CC(=O)N1C[C@H](C)N(c2nc(=O)n3c4c(c(-c5ccc(F)cc5F)c(Cl)cc24)OC[C@@H]3CC2(O)CCN(C)CC2)C[C@H]1C [Example 304, (3S)-7-((2S,5R)-4-acryloyl-2,5-dimethylpiperazin-1-yl)-9-chloro-10-(2,4-difluorophenyl)-3-((4-hydroxy-1-methylpiperidin-4-yl)methyl)-2,3-dihydro-5H-[1,4]oxazino[2,3,4-ij]quinazolin-5-one] | 45.1%
C=CC(=O)N1C[C@H](C)N(c2nc(=O)n3c4c(c(-c5ccc(F)cc5F)c(Cl)cc24)OC[C@H]3CN(C(=O)[C@@H]2CCCN2C)C2CC2)C[C@H]1C [Example 307, (2S)-N-(((3R)-7-((2S,5R)-4-acryloyl-2,5-dimethylpiperazin-1-yl)-9-chloro-10-(2,4-difluorophenyl)-5-oxo-3,5-dihydro-2H-[1,4]oxazino[2,3,4-ij]quinazolin-3-yl)methyl)-N-cyclopropyl-1-methylpyrrolidine-2-carboxamide] | 51.1%
